Here are results for three compounds from ChEMBL document CHEMBL4842311, “Novel Mechanistic Observations and NES-Binding Groove Features Revealed by the CRM1 Inhibitors Plumbagin and Oridonin” (J Nat Prod, 2021).

Structures are written as SMILES. Active and inactive are the calls of the source. The calls are words filed in the database; no cut-off is given here.

For experiment [1], the target named is Exportin-1 (Homo sapiens) (UniProt O14980). Briefly: Inhibition of human wild type CRM1 assessed as C528 conjugation at 20 uM incubated for 2 hrs before binding by coomassie blue staining based pull-down assay.
Experiment [2] has as its system Exportin-1 (Homo sapiens), O14980 [C528S]. As to the kind of experiment: Inhibition of human CRM1-C528S mutant assessed as C528 conjugation at 20 uM incubated for 2 hrs before binding by coomassie blue staining based pull-down assay.
For experiment [3], the system named is Saccharomyces cerevisiae. As to the kind of experiment: Inhibition of Yeast GST-tagged/TEV cleavage site fused CRM1 C152/C539/D1034A triple mutant expressed in Escherichia coli BL21 (DE3) assessed as decrease in NES binding at 60 uM measured after 2 hrs by coomassie blue staining based pull-down assay.
The subject of experiment [4] is Saccharomyces cerevisiae. Briefly: Inhibition of Yeast GST-tagged/TEV cleavage site fused CRM1 C152/C539 double mutant expressed in Escherichia coli BL21 (DE3) assessed as C1022 conjugation mediated NES inhibition at 60 uM measured after 2 hrs by coomassie blue staining based pull-down assay.
Experiment [5] concerns the target Exportin-1 (Homo sapiens) (UniProt O14980). As to the kind of experiment: Inhibition of human CRM1-WT assessed as C528 conjugation at 1 uM incubated for 2 hrs before binding by coomassie blue staining based pull-down assay.

Exportin-1 (Homo sapiens), sequence (O14980 whole entry): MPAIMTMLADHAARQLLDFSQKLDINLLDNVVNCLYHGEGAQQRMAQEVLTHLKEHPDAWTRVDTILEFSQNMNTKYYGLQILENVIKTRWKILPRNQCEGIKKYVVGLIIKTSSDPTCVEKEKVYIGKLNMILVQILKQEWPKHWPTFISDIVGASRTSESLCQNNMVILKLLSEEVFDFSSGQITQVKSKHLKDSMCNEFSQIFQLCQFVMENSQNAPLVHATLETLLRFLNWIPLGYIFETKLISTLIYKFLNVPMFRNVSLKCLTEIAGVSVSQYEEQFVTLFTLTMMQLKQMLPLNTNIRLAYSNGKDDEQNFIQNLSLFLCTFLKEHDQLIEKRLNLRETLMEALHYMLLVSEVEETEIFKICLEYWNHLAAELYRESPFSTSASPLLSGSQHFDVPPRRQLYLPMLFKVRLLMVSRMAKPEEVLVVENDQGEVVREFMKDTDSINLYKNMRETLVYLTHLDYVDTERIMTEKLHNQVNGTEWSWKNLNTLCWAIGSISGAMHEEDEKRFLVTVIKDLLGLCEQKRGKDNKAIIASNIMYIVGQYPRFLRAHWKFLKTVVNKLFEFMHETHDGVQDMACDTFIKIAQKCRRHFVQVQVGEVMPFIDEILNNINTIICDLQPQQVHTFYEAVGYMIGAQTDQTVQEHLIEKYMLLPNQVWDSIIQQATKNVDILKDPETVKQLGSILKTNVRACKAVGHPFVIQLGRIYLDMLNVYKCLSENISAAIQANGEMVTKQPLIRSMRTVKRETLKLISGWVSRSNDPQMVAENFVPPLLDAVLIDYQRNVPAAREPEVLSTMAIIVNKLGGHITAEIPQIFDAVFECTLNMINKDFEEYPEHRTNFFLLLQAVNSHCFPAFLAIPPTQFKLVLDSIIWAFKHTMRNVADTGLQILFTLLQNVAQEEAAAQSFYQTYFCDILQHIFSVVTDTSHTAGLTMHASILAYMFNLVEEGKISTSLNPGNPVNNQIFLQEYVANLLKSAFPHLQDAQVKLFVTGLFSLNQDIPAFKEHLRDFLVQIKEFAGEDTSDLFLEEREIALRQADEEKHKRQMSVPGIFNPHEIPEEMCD
Exportin-1 (Homo sapiens), O14980 [C528S], sequence (O14980 whole entry C528S, the tested form may be a part): as the sequence (O14980 whole entry) above, with C528S counted along it

For `CC1=CC(=O)c2c(O)cccc2C1=O`, the inhibition entry (in experiment [1]; in experiment [2]; in the experiment with Saccharomyces cerevisiae [3]) was “Active” throughout.
With `C=C1C(=O)[C@]23[C@H](O)[C@H]1CC[C@H]2[C@@]12CO[C@]3(O)[C@@H](O)[C@@H]1C(C)(C)CC[C@@H]2O`, the inhibition result (in experiment [1]; in experiment [2]; in the experiment with Saccharomyces cerevisiae [3]; in the experiment on Saccharomyces cerevisiae [4]) was “Active” in each case. Besides, the inhibition result in experiment [5] is “inactive”.
Take `O=C(/C=C\n1cnc(-c2cc(C(F)(F)F)cc(C(F)(F)F)c2)n1)NNc1cnccn1`: the inhibition entry in experiment [1] and in experiment [2] was “Active” in each case.
